Test results from US20130053435A1, “Methods of Treating Alcohol Intoxication, Alcohol Use Disorders and Alcohol Abuse Which Comprises the Administration of Dihydromyricetin” (priority 2011, published 2013).

System: T1, GABAARs
T1 construct: rows headed: effect on GABAAR-currents; effect on GABAAR-currents; other: zolpidem 0.3 μM, DGCs of EtOH group
Test: Whole-cell patch-clamp, DGCs in hippocampal slices 48 hr after in vivo treatment
Type: cell-based, rat
Conditions: zolpidem 0.3 μM
Method: Transverse slices (400 μm) of dorsal hippocampus were obtained with a Vibratome (VT 100, Technical Products International, St. Louis, Mo.) and standard techniques known in the art. Slices were continuously perfused with artificial cerebrospinal fluid (ACSF). See Liang, J., et al. (2007) J Neurosci 27:12367-12377.
Whole-cell patch-clamp recordings were obtained at 34±0.5° C. from cells located in the DG layer at a holding potential of −70 mV, during perfusion with artificial cerebrospinal fluid (ACSF, 125 mM NaCl, 2.5 mM KCl, 2 mM CaCl2, 2 mM MgCl2, 26 mM NaHCO3, and 10 mM D-glucose). The ACSF was continuously bubbled with 95% O2-5% CO2 to ensure adequate oxygenation of slices and a pH of 7.4. Patch electrodes were pulled from thin-wall borosilicate glass pipettes with resistances of 7.5-9 MΩ and were filled with pipette solution (i.e. 137 mM CsCl, 2 mM MgCl2, 1 mM CaCl2, 11 mM EGTA, 10 mM HEPES and 3 mM ATP, pH adjusted to 7.30 with CsOH). Signals were recorded in voltage-clamp mode with a […] amplifier (Molecular Devices, Sunnyvale, Calif.). Whole cell access resistances were in the range of <25 MΩ before electrical compensation by about 70%. During voltage-clamp recordings, access resistance was monitored by measuring the size of the capacitative transient in response to a 5 mV step command and the data were abandoned if changes >20% were encountered. At least 10 min was allowed for equilibration of the pipette solution with the intracellular milieu before commencing mIPSC recordings. Intracellular signal was low-pass filtered at 3 kHz and data were acquired with Digidata 1440A and software CLAMPEX 10 (Molecular Devices) at a sampling frequency of 20 kHz.
Pharmacologically-isolated GABAAR-mediated mIPSCs were recorded as previously described (Liang (2007) and Shen (2011)). […] Data were analyzed using the Clampfit (Version 9.0, Molecular Devices) and the MiniAnalysis Program (versions 6.0.7, Synaptosoft, Decatur, Ga.).
The MiniAnalysis program (Synaptosoft, Decatur, Ga.) was used to analyze mIPSCs. Itonic is the averaged baseline currents of a given recording period. Itonic amplitude was calculated as the difference between the holding currents measured before and after picrotoxin (100 μM) or bicuculline (10 μM). See Wei, W., et al. (2004) J Neurosci 24, 8379-8382; Liang (2007); and Shen (2011). Briefly, the recordings were low-pass filtered off-line (Clampfit software) at 2 kHz. The mIPSCs were detected (Mini Analysis Program, version 6.0.7) with threshold criteria of 8 pA amplitude and 20 pA*ms charge transfer. The frequency of mIPSCs was determined from all automatically detected events in a given 100 s recording period. For kinetic analysis, only single event mIPSCs with a stable baseline, sharp rising phase (10 to 90% rise time), and exponential decay were chosen during visual inspection of the recording trace. Double and multiple peak mIPSCs were excluded. At least 100 individual mIPSC events were recorded under each experimental condition. The mIPSC kinetics was obtained from analysis of the averaged chosen single events aligned with half rise time in each cell. Decay time constants were obtained by fitting a double exponential to the falling phase of the averaged mIPSCs. Itonic magnitudes were obtained from the averaged baseline current of a given recording period. Itonic amplitude was calculated as the difference between the holding currents measured before and after the application of picrotoxin (50 μM) or bicuculline (10 μM). See Liang J et al (2007); Shen (2011); Hamann (2002); and Mangan P S, et al. (2005) Mol Pharmacol 67(3):775-788. The investigator performing the recordings and mIPSC analysis was blind to the treatment (vehicle, EtOH, E+D, or D) that the rats received.
After 48 hr withdrawal, whole-cell GABAAR-mediated currents were recorded on DGCs in hippocampal slices. In the vehicle group, bath application of EtOH (60 mM) enhanced Itonic from 28.8±3.1 to 62.1±3.3 pA (FIG. 13, panels A, G). […]

Cc1ccc(-c2nc3ccc(C)cn3c2CC(=O)N(C)C)cc1 [Zolpidem, zolpidem, reference compound]
effect on GABAAR-currents (DGCs of DHM group as in vehicle group): potentiation
effect on GABAAR-currents (DGCs of EtOH group): did not affect GABAAR-currents
